Data from paper PMC3731320, “Identification of Benzimidazole Diamides as Selective Inhibitors of the Nucleotide-Binding Oligomerization Domain 2 (NOD2) Signaling Pathway” (PLoS ONE, 2013).
“Also recorded” adds a separate entry of the source.

What was measured:
[1] = biological target: T1, full length human FLAG-6His tagged RIP2 (Homo sapiens, UniProt O43353); assay: RIP2 kinase autophosphorylation assay (ADP-Glo); type: biochemical; conditions: autophosphorylation of RIPK2; 10 μM ATP
T1 construct: autophosphorylation of full length human FLAG-6His tagged RIP2; FLAG; 6His; made in house
T1 sequence (O43353 whole entry): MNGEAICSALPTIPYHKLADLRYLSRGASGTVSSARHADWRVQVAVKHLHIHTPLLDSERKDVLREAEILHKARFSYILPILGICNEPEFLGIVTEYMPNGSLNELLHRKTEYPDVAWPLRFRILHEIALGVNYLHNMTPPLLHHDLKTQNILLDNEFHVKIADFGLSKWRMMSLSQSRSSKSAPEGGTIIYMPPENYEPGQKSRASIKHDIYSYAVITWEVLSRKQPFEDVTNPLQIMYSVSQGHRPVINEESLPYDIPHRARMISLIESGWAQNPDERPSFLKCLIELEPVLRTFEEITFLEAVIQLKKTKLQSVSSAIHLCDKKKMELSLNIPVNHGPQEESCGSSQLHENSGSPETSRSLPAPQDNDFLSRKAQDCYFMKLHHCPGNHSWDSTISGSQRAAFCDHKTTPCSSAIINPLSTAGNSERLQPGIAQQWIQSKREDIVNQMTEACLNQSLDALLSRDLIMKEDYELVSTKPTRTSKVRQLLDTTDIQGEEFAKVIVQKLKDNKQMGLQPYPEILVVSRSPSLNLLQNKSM
Procedure: Direct effects of compounds on RIP2 kinase activity was determined by autophosphorylation of full length human FLAG-6His tagged RIP2 expressed and purified from baculovirus. Enzyme was pre-incubated with compounds in assay buffer (50 mM HEPES pH 7.5, 25 mM MgCl2, 0.05%[w/v] CHAPS, 1 mM DTT and 0.05 mg/mL BSA) in 384-well plates, and then incubated with 10μM ATP for 2 hours at room temperature. The amount of ADP generated was measured using the ADP-Glo universal ADP detection assay for kinases (Promega) and luminescence quantified on a ViewLux imager.

TLR2 [2] = assay: Pam2CSK4-stimulated IL-8 release in 293/hTLR2 cells; type: cell-based, human; conditions: Homo sapiens; IL-8 end-point; 3–10 ng/mL Pam2CSK4; read-out: IC50 293/hTLR2 Pam2CSK4
Procedure: (§1) After 24 hours the amount of IL-8 secreted into the medium was determined by homogeneous time resolved fluorescence (HTRF) assay by the direct addition of a 1:1 mix of europium cryptate and XL665-conjugated anti-IL-8 antibodies according to the manufacturer's instructions (Cisbio).

NOD1 [3] = assay: Tri-DAP-stimulated IL-8 release in HCT116 cells (endogenous NOD1); type: cell-based, human
Procedure: (§2) Compound activity on endogenous NOD1 and NOD2 receptors was determined by inhibition of either Tri-DAP or MDP-stimulated IL-8 release, respectively, using HCT116 human colon carcinoma cells. […] The cells were maintained in DMEM high glucose medium supplemented with 25 mM HEPES and 10% FBS. For assay, cells were seeded into 96 well plates (90,000 cells/well) in DMEM containing 1% FBS and pre-incubated with compounds for 1 hour before addition of either 1 μg/mL MDP or 25 μg/mL Tri-DAP. The level of IL-8 released into medium after 24-hour incubation was determined by HTRF assay as described above and fluorescence measured on an Envision model 2102 multilabel plate reader (Perkin Elmer).

NOD1 [4] = assay: iE-DAP-stimulated IL-8 release in 293/hNOD1 cells (HTRF); type: cell-based, human; conditions: Homo sapiens; IL-8 end-point; 60 ng/mL iE-DAP; read-out: IC50 293/hNOD1 iE-DAP
Procedure: as §1

NOD2 [5] = assay: MDP-stimulated IL-8 release in 293/hNOD2 cells (HTRF); type: cell-based, human; conditions: Homo sapiens
Procedure: as §1

NOD2 [6] = assay: Western blot of MAPK phosphorylation and IκBα in MDP-stimulated 293/hNOD2 cells; type: cell-based, human; conditions: GSK669 at 1 and 10 μM
Procedure: Confluent cultures of 293/-hNOD1 and -hNOD2 cells in 24-well plates were serum-starved over-night. The next day, cells were pre-incubated for 1 hour with compound and then stimulated for 1 hour with either 50 μg/mL Tri-DAP or 25 μg/mL MDP, respectively. Whole cell lysates were prepared in 1X cell lysis buffer (Cell Signaling Technology) containing additional inhibitors of aspartic, cysteine and serine proteases and aminopeptidases (protease inhibitor cocktail set III, EMD Biosciences) and inhibitors of multiple phosphatases (phosphatase inhibitor cocktail sets II and III, Sigma-Aldrich). The levels of phosphorylated and total p38, JNK, ERK1/2 and total IκBα were determined by immunoblotting of ∼20 μg protein per sample using the following primary antibodies: phospho-p38 MAPK (12F8, #4631), p38 MAPK (#9212), phospho-JNK (#9251), JNK (#9252) and IκBα (#9242) all purchased from Cell Signaling Technology, and phospho-ERK1/2 (sc-7383) and ERK1/2 (sc-94) antibodies from Santa Cruz Biotechnology.

TNFR1 = assay: TNFα-stimulated (TNFR1-induced) IL-8 release in 293/hNOD2 cells; type: cell-based, human; conditions: Homo sapiens; IL-8 end-point; 20 ng/mL rhTNFα; read-out: IC50 293/hNOD2 TNFα
Procedure: as §1

NOD2 [7] = assay: MDP-stimulated IL-8 release in HCT116 cells (endogenous NOD2); type: cell-based, human
Procedure: as §2

NOD2 [8] = assay: MDP-stimulated cytokine release in primary human monocytes; type: cell-based; conditions: MDP 0.1 μg/mL
Procedure: (§3) […] The concentration of IL-1β, IL-6 and TNFα in medium samples collected after 24-hour treatment was determined using the MS6000 human pro-inflammatory-4 II tissue culture kit (Meso Scale Discovery). The IL-8 concentration was determined by HTRF.

TLR2 [9] = assay: Pam2CSK4-stimulated IL-8 release in primary human monocytes; type: cell-based; conditions: Pam2CSK4 100 pg/mL; GSK717 0.5–16 μM, RIP2 inhibitor 0.05–1.6 μM
NOD2 and TLR2 = assay: IL-8 release in primary human monocytes co-stimulated with MDP and Pam2CSK4 (NOD2-TLR2 synergy); type: cell-based; conditions: MDP 0.1 μg/mL + Pam2CSK4 100 pg/mL; listed as GSK717
Procedure: as §3

Row | IC50 [1] [µM] | IC50 (TLR2 [2]) [µM] | IC50 (NOD1 [3]; Homo sapiens, HCT-116, IL-8 end-point, 25 μg/mL Tri-DAP) [µM] | IC50 (NOD1 [4]) [µM] | IC50 (NOD2 [5]; IL-8 end-point, 30 ng/mL MDP, read-out: IC50 293/hNOD2 MDP) [µM] | IC50 (NOD2 [5]; MDP-stimulated IL-8 production assay in 293/hNOD2 cells, Figures 4 and 5, read-out: NOD2 IC50) [µM] | IC50 (TNFR1) [µM] | IC50 (NOD2 [7]; Homo sapiens, HCT-116, IL-8 end-point, 1 μg/mL MDP) [µM] | Compound | effect on IL-8 secretion induced by Tri-DAP in HCT116 cells (NOD1 [3]; Tri-DAP 25 μg/mL, 1 hour pre-treatment) | effect on MDP-induced p-p38, p-JNK and total IκBα (NOD2 [6]) | effect on IL-8 secretion induced by MDP in HCT116 cells (NOD2 [7]; MDP 1 μg/mL, 1 hour pre-treatment) | effect on MDP-stimulated IL-8 release in monocytes (NOD2 [8]; GSK717 0.5–16 μM, RIP2 inhibitor 0.05–1.6 μM) | effect on MDP-stimulated cytokine secretion, single concentration (NOD2 [8]; primary human monocytes, compound 5 μM, IL-1β, IL-6, IL-8, TNFα, 24 hours) | effect on Pam2CSK4-stimulated IL-8 release in monocytes (TLR2 [9]) | effect on synergistic IL-8 response of co-stimulated monocytes (NOD2 and TLR2)
1 | > 100 | > 100 | > 50 | > 50 | 5 | 4 ± 3.9 | > 100 | 1.1 ± 0.7 | CC(C)c1ccc(NC(=O)Cn2c(CCNC(=O)c3ccccc3)nc3ccccc32)cc1 [Compound 2, N-(2-(1-(2-((4-isopropylphenyl)amino)-2-oxoethyl)-1H-benzo[d]imidazol-2-yl)ethyl)benzamide] | had no effect | more modest inhibitory effects | dose-dependently inhibited | – | – | – | –
2 | – | – | – | – | – | – | – | – | CN(CCc1nc2ccccc2n1CC(=O)Nc1ccc2c(c1)CCC2)C(=O)c1ccccc1 [Compound 29, N-(2-(1-(2-((2,3-dihydro-1H-inden-5-yl)amino)-2-oxoethyl)-1H-benzo[d]imidazol-2-yl)ethyl)-N-methylbenzamide] | – | – | – | prevented | abrogated the stimulatory effect of MDP | but not Pam2CSK4-stimulated IL-8 release | blocks synergy between NOD2 and TLR2; also recorded: abolished the clear synergistic IL-8 response
